Reference: US20260256929A1, “PROTEASE/ENZYME CLEAVABLE LINKER-PAYLOADS AND PROTEIN CONJUGATES” (priority 2022, published 2026)
Read-outs that look alike come from different tables or passages of the source.

Tests used:
Format in all cases: cell-based
[1] = system: MDA-MB-231; test: Free drug cell killing activity (cell proliferation assay, Cell Titer-Glo); conditions: for EC50: Homo sapiens
[2] = system: HCC1937; test: as above; conditions: for EC50: Homo sapiens
Protocol: (§1) The in vitro cell killing activity of exatecan, gly-exatecan, and hemiasterlin were evaluated in a panel of breast cancer and lung cancer cell lines.
(§2) MDA-MB-361, SKBR3, BT20, HCC38, HCC1143, HCC1937, JIMT1, MCF-7, A549, NCI-H441, NCI-H520, NCI-H1703, NCI-H1975, NCI-H2110, NCI-H226, NCI-H292, NCI-H358 cells were purchased from ATCC (American Type Culture Collection, Manassas, VA, USA). All the cell lines were maintained in DMEM/F12 (1:1), high glucose (Corning, Corning, NY) supplemented with 10% heat-inactivated fetal bovine serum (Thermo Scientific, Grand Island, NY), 2 mM glutamax (Thermo Scientific, Grand Island, NY), and 1× Penicillin/Streptomycin (Corning, Corning, NY). Cytotoxicity effect of the Exatecan warhead was measured with a cell proliferation assay. Cells were seeded in a 384-well flat bottom white polystyrene plate at 625 cells/25 uL the day before the actual assay starts. Exatecan was formulated at 2× starting concentration in cell culture medium, serial diluted (1:3) under sterile conditions and added onto cells in triplicates. Plates were cultured at 37° C. in a CO2 incubator for 120 hours. For cell viability measurement, 30 microliter of Cell Titer-Glo® reagent (Promega Corp, Madison, WI) was added into each well, and plates processed as per product instructions. Relative luminescence was measured on an ENVISION® plate reader (Perkin-Elmer; Waltham, MA). Relative luminescence readings were converted to % viability using untreated cells as controls. Data was fitted with non-linear regression analysis, using log (inhibitor) vs. response, variable slope, 4-parameter fit equation using GraphPad Prism.

[3] = system: NCI-H358; test: as above; conditions: for EC50: Homo sapiens
Protocol: as §1, §2

[4] = system: NCI-H1975; test: as above; conditions: for EC50: Homo sapiens
Protocol: as §1, §2

[5] = system: MDA-MB-361; test: as above; conditions: for EC50: Homo sapiens
Protocol: as §1, §2

[6] = system: HCC38; test: as above; conditions: for EC50: Homo sapiens
Protocol: as §1, §2

[7] = system: A549; test: as above; conditions: for EC50: Homo sapiens
Protocol: as §1, §2

[8] = system: NCI-H520; test: as above; conditions: NCI-H520, 120 hours; for EC50: Homo sapiens
Protocol: as §1, §2

[9] = system: NCI-H441; test: as above; conditions: for EC50: Homo sapiens
Protocol: as §1, §2

[10] = system: JIMT1; test: as above; conditions: for EC50: Homo sapiens
Protocol: as §1, §2

[11] = system: SKBR3; test: as above; conditions: for EC50: Homo sapiens
Protocol: as §1, §2

[12] = system: BT20; test: as above; conditions: for EC50: Homo sapiens
Protocol: as §1, §2

[13] = system: HCC1143; test: as above; conditions: for EC50: Homo sapiens
Protocol: as §1, §2

[14] = system: NCI-H1703; test: as above; conditions: for EC50: Homo sapiens
Protocol: as §1, §2

[15] = system: NCI-H2110; test: as above
Protocol: as §1, §2

[16] = system: NCI-H226; test: as above; conditions: for EC50: Homo sapiens
Protocol: as §1, §2

[17] = system: MCF-7; test: as above; conditions: for EC50: Homo sapiens
Protocol: as §1, §2

[18] = system: NCI-H292; test: as above; conditions: for EC50: Homo sapiens
Protocol: as §1, §2

[19] = system: panel of breast cancer and lung cancer cell lines; test: Free drug cell killing activity across the whole panel; conditions: all the cell lines tested (Table 2), 120 hours; read-out: EC50 values ranging over all the cell lines tested
Protocol: as §1
as §2, with “For cell viability measurement, 30 microliter of Cell Titer-Glo® reagent (Promega Corp, Madison, WI) was added into each well, and plates processed as per product instructions.” left out, “Data was fitted with non-linear regression analysis, using log (inhibitor) vs. response, variable slope, 4-parameter fit equation using GraphPad Prism.” left out

[20] = system: NCI-H2343; test: Free drug cell killing activity (cell proliferation assay, Cell Titer-Glo)
[21] = system: MDA-MB-468; test: as above; conditions: for EC50: Homo sapiens

## CC[C@@]1(O)C(=O)OCc2c1cc1n(c2=O)Cc2c-1nc1cc(F)c(C)c3c1c2[C@@H](NC(=O)CN)CC3 [Gly-exatecan, gly-exatecan]
[1]; MDA-MB-231, 120 hours, read-out: EC50
  EC50: 3.8 nM
[1]; MDA-MB-231, 120 hours
  Span (%): 60%
[2]; HCC1937, 120 hours
  Span (%): 87%
[2]; HCC1937, 120 hours, read-out: EC50
  EC50: 35 nM
[3]; NCI-H358, 120 hours, read-out: EC50
  EC50: 7.5 nM
[3]; NCI-H358, 120 hours
  Span (%): 95%
[4]; NCI-H1975, 120 hours, read-out: EC50
  EC50: 43 nM
[4]; NCI-H1975, 120 hours
  Span (%): 84%
[5]; MDA-MB-361, 120 hours, read-out: EC50
  EC50: 4.5 nM
[5]; MDA-MB-361, 120 hours
  Span (%): 98%
[6]; HCC38, 120 hours
  Span (%): 93%
[6]; HCC38, 120 hours, read-out: EC50
  EC50: 6.1 nM
[7]; A549, 120 hours
  Span (%): 90%
[7]; A549, 120 hours, read-out: EC50
  EC50: 44 nM
[8]
  EC50: 11 nM
  Span (%): 80%
[9]; NCI-H441, 120 hours, read-out: EC50
  EC50: 5.1 nM
[9]; NCI-H441, 120 hours
  Span (%): 90%
[10]; JIMT-1, JIMT1, 120 hours, read-out: EC50
  EC50: 15 nM
[10]; JIMT1, 120 hours
  Span (%): 70%
[11]; SK-BR-3, SKBR3, 120 hours, read-out: EC50
  EC50: 4.2 nM
[11]; SKBR3, 120 hours
  Span (%): 95%
[12]; BT20, 120 hours
  Span (%): 92%
[12]; BT-20, BT20, 120 hours, read-out: EC50
  EC50: 21 nM
[13]; HCC1143, 120 hours
  Span (%): 76%
[13]; HCC1143, 120 hours, read-out: EC50
  EC50: 14 nM
[14]; NCI-H1703, 120 hours, read-out: EC50
  EC50: 25 nM
[14]; NCI-H1703, 120 hours
  Span (%): 91%
[15]; NCI-H2110, 120 hours
  Span (%): 89%
[15]; NCI-H2110, 120 hours, read-out: EC50
  EC50: 9.2 nM
[16]; NCI-H226, 120 hours, read-out: EC50
  EC50: 23 nM
[16]; NCI-H226, 120 hours
  Span (%): 99%
[17]; MCF7, MCF-7, 120 hours, read-out: EC50
  EC50: 8.8 nM
[17]; MCF-7, 120 hours
  Span (%): 75%
[18]; NCI-H292, 120 hours, read-out: EC50
  EC50: 4 nM
[18]; NCI-H292, 120 hours
  Span (%): 94%
[19]
  EC50: 3.8 to 44 nM
[20]; NCI-H2343, 120 hours
  Span (%): 55%
[20]; NCI-H2343, 120 hours, read-out: EC50
  EC50: 30 nM
[21]; MDA-MB-468, 120 hours, read-out: EC50
  EC50: 5.3 nM
[21]; MDA-MB-468, 120 hours
  Span (%): 91%

## CC[C@@]1(O)C(=O)OCc2c1cc1n(c2=O)Cc2c-1nc1cc(F)c(C)c3c1c2[C@@H](N)CC3 [Exatecan, exatecan]
[1]; MDA-MB-231, 120 h
  EC50: 0.84 nM
[1]; MDA-MB-231, 120 hours
  Span (%): 64%
[2]; HCC1937, 120 hours
  Span (%): 94%
[2]; HCC1937, 120 h
  EC50: 3.5 nM
[3]; NCI-H358, 120 h
  EC50: 0.53 nM
[3]; NCI-H358, 120 hours
  Span (%): 96%
[4]; NCI-H1975, 120 h
  EC50: 0.87 nM
[4]; NCI-H1975, 120 hours
  Span (%): 90%
[5]; MDA-MB-361, 120 h
  EC50: 1.2 nM
[5]; MDA-MB-361, 120 hours
  Span (%): 96%
[6]; HCC38, 120 hours
  Span (%): 96%
[6]; HCC38, 120 h
  EC50: 0.38 nM
[7]; A549, 120 hours
  Span (%): 96%
[7]; A549, 120 h
  EC50: 1.2 nM
[8]
  EC50: 0.6 nM
  Span (%): 96%
[9]; NCI-H441, 120 h
  EC50: 0.32 nM
[9]; NCI-H441, 120 hours
  Span (%): 93%
[10]; JIMT-1, 120 h
  EC50: 1.6 nM
[10]; JIMT1, 120 hours
  Span (%): 98%
[11]; SK-BR-3, 120 h
  EC50: 0.39 nM
[11]; SKBR3, 120 hours
  Span (%): 96%
[12]; BT20, 120 hours
  Span (%): 96%
[12]; BT-20, 120 h
  EC50: 0.91 nM
[13]; HCC1143, 120 hours
  Span (%): 76%
[13]; HCC1143, 120 h
  EC50: 0.85 nM
[14]; NCI-H1703, 120 h
  EC50: 1.1 nM
[14]; NCI-H1703, 120 hours
  Span (%): 93%
[15]; NCI-H2110, 120 h
  EC50: 0.61 nM
[15]; NCI-H2110, 120 hours
  Span (%): 91%
[16]; NCI-H226, 120 h
  EC50: 1.08 nM
[16]; NCI-H226, 120 hours
  Span (%): 98%
[17]; MCF7, 120 h
  EC50: 1.2 nM
[17]; MCF-7, 120 hours
  Span (%): 83%
[18]; NCI-H292, 120 h
  EC50: 0.36 nM
[18]; NCI-H292, 120 hours
  Span (%): 98%
[19]
  EC50: 0.32 to 4.2 nM
[20]; 120 h
  EC50: 12 nM
[20]; NCI-H2343, 120 hours
  Span (%): 70%
[21]; MDA-MB-468, 120 h
  EC50: 0.59 nM
[21]; MDA-MB-468, 120 hours
  Span (%): 97%
